This passage reports IC50 results from patent publication US7030242B2, “Selective inhibition of aggrecanase in osteoarthritis treatment” (Pfizer Inc, priority 1999, dated 2006).

As usually defined, the IC50 is the concentration that gives 50% inhibition.

A value given as a limit tells only on which side of the number the result lay.

One assay relates to aggrecanase. The experiment in a line: Aggrecanase chondrocyte assay (35S-proteoglycan release, IL-1 stimulated). Type of assay: cell-based, porcine. To be noted: Table 2; aggrecanase chondrocyte assay; read-out: Agg (aggrecanase IC50 class). The procedure: Aggrecanase Chondrocyte Assay
This assay is used in the invention to measure the potency (IC50s) of compounds for aggrecanase.
Primary porcine chondrocytes from articular joint cartilage are isolated by sequential trypsin and collagenase digestion followed by collagenase digestion overnight and are plated at 2×10^5 cells per well into 48 well plates with 5 μCi/ml ^35S (1000 Ci/mmol) sulphur in type I collagen coated plates. Cells are allowed to incorporate label into their proteoglycan matrix (approximately 1 week) at 37° C., under an atmosphere of 5% CO2.
The night before initiating the assay, chondrocyte monolayers are washed two times in DMEM/1% PSF/G and then allowed to incubate in fresh DMEM/1% FBS overnight.
The following morning chondrocytes are washed once in DMEM/1% PSF/G. The final wash is allowed to sit on the plates in the incubator while making dilutions. Media and dilutions can be made as described in the Table I below.
Plates are labeled and only the interior 24 wells of the plate are used. On one of the plates, several columns are designated as IL-1 (no drug) and Control (no IL-1, no drug). These control columns are periodically counted to monitor 35S-proteoglycan release. Control and IL-1 media are added to wells (450 μl) followed by compound (50 μl) so as to initiate the assay. Plates are incubated at 37° C., with a 5% CO2 atmosphere.
At 40–50% release (when CPM from IL-1 media is 4–5 times control media) as assessed by liquid scintillation counting (LSC) of media samples, the assay is terminated (about 9 to about 12 hours). Media is removed from all wells and placed in scintillation tubes. Scintillate is added and radioactive counts are acquired (LSC). To solubilize cell layers, 500 μL of papain digestion buffer (0.2 M Tris, pH 7.0, 5 mM EDTA, 5 mM DTT, and 1 mg/ml papain) is added to each well. Plates with digestion solution are incubated at 60° C. overnight. The cell layer is removed from the plates the next day and placed in scintillation tubes. Scintillate is then added, and samples counted (LSC).
The percent of released counts from the total present in each well is determined. Averages of the triplicates are made with control background subtracted from each well.

Assay [1] addresses T1, Human recombinant collagenase-1 (Homo sapiens, UniProt P03956).
T1 sequence (P03956 100-469): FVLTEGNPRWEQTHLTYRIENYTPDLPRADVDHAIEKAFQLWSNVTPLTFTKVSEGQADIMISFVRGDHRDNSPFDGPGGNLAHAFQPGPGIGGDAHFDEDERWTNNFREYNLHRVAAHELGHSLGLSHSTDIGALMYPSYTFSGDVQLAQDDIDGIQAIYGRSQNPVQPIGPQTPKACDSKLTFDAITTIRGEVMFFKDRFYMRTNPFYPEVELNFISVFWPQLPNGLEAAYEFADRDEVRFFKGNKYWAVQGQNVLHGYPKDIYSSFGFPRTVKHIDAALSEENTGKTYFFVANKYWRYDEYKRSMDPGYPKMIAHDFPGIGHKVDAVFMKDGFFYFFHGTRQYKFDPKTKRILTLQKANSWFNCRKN
Put plainly: Inhibition of human collagenase-1 (recombinant collagenase-1 assay). It is filed as biochemical. The conditions noted are these: Table 2, read-out: MMP-1 (IC50 class). The procedure:
Inhibition of Human Collagenase-1 (Recombinant Collagenase-1 Assay)
This assay is used in the invention to measure the potency (IC50s) of compounds for collagenase-1.
Human recombinant collagenase-1 is activated with trypsin. The amount of trypsin is optimized for each lot of collagenase-1, but a typical reaction uses the following ratio: 5 mg trypsin per 100 mg of collagenase.
Stock solutions (10 mM) of inhibitors are made up in dimethylsulfoxide and then diluted using the following scheme: • 10 mM------>120 μM------>12 μM------>1.2 μM------>0.12 μM
Twenty-five microliters of each concentration is then added in triplicate to appropriate wells of a 96 well microfluor plate. The final concentration of inhibitor will be a 1:4 dilution after addition of enzyme and substrate. Positive controls (enzyme, no inhibitor) are set up in wells D7–D12 and negative controls (no enzyme, no inhibitors) are set in wells D1–D6.
Collagenase-1 is diluted to 240 ng/ml and […] is then added to appropriate wells of the microfluor plate. Final concentration of collagenase in the assay is 60 ng/ml.
Substrate (DNP-Pro-Cha-Gly-Cys(Me)-His-Ala-Lys(NMA)-NH2) is made as a 5 mM stock in dimethylsulfoxide and then diluted to 20 μM in assay buffer. The assay is initiated by the addition of […] substrate per well of the microfluor plate to give a final concentration of 10 μM.
Fluorescence readings (360 nm excitation, 460 nm emission) are taken at time 0 and then at about 20 minute intervals. The assay is conducted at a temperature of about 20 to about 25° C., preferably about 23° C. with a typical assay time of about 3 hours.
Fluorescence versus time is then plotted for both the blank and collagenase containing samples (data from triplicate determinations is averaged). A time point that provides a good signal (at least five fold over the blank) and that is on a linear part of the curve (usually around 120 minutes) is chosen to determine IC50 values. The zero time is used as a blank for each compound at each concentration and these values are subtracted from the 120 minute data. Data is plotted as inhibitor concentration versus % control (inhibitor fluorescence divided by fluorescence of collagenase alone ×100).

A further assay deals with T2, TACE (Homo sapiens, UniProt P78536).
T2 construct: Human mononuclear cells are isolated from anti-coagulated human blood; endogenous in cells; host or cells: human peripheral blood mononuclear cells, LPS stimulated
Put plainly: Inhibition of soluble TNF-α production (TACE whole blood assay). It is filed as cell-based. The conditions noted are these: Table 2, read-out: TACE (IC50 class). The procedure:
Inhibition of Soluble TNF-α Production (TACE Whole Blood Assay)
This assay is used in the invention to measure the potency (IC50s) of compounds for TACE.
Human mononuclear cells are isolated from anti-coagulated human blood using a one-step Ficoll-hypaque separation technique. (2) The mononuclear cells are washed three times in Hanks balanced salt solution (HBSS) with divalent cations and re-suspended to a density of 2×10^6/ml in HBSS containing 1% BSA.
180 μL of the cell suspension was aliquoted into flat bottom 96 well plates (Costar). Additions of compounds and LPS (100 ng/ml final concentration) gives a final volume of 200 μL. All conditions are performed in triplicate. After about a four hour incubation at about 37° C. in an humidified CO2 incubator, plates are removed and centrifuged (about 10 minutes at approximately 250×g) and the supernatants removed and assayed for TNF-α using the R&D ELISA Kit.

For assay [2], the target named is Human recombinant collagenase-3 (Homo sapiens, UniProt P45452). Put plainly: Inhibition of human collagenase-3 (recombinant collagenase-3 assay). It is filed as biochemical. To be noted: Table 2; recombinant collagenase-3 assay; read-out: MMP-13 (IC50 class). The procedure: Inhibition of Human Collagenase-3 (Recombinant Collagenase-3 Assay)
This assay is used in the invention to measure the potency (IC50s) of compounds for collagenase-3.
Human recombinant collagenase-3 is activated with 2 mM APMA (p-aminophenyl mercuric acetate) for about 2.0 hours, at about 37° C. and is diluted to about 240 ng/ml in assay buffer (50 mM Tris, pH 7.5, 200 mM sodium chloride, 5 mM calcium chloride, […], 0.02% BRIJ-35). Twenty-five micro-liters of diluted enzyme is added per well of a 96 well microfluor plate.
The final concentrations in the assay are 30 μM, 3 μM, 0.3 μM, and 0.03 μM.
Fluorescence readings (360 nm excitation; 450 nm emission) are taken at time 0 and about every 5 minutes for about 1 hour.
Positive controls and negative controls are set up in triplicate as outlined in the collagenase-1 assay. IC50's are determined as per inhibition of human collagenase (collagenase-1).

T2 sequence (P78536 215-824): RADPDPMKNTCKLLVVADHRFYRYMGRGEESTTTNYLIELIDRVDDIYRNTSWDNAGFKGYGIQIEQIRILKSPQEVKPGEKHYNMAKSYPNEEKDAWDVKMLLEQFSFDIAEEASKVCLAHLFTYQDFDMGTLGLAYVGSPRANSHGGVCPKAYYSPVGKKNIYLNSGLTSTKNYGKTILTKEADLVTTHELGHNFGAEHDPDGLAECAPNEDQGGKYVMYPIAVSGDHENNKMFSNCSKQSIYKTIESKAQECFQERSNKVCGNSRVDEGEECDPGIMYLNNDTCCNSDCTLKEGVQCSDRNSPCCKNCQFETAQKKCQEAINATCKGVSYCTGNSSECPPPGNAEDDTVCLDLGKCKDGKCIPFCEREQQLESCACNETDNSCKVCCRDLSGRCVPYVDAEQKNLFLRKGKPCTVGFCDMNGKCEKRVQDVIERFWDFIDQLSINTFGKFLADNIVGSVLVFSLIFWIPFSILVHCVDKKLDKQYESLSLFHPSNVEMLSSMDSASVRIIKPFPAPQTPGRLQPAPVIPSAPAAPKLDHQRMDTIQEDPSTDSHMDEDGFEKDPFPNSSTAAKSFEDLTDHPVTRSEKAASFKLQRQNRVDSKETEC

For `Cc1c(F)cccc1COc1ccc(S(=O)(=O)N2CCC[C@@](C)(O)[C@@H]2C(=O)NO)cc1` [(2R,3R) 1-[4-(2-methyl-3-fluorobenzyloxy)-benzenesulfonyl]-3-hydroxy-3-methyl-piperidine-2-carboxylic acidhydroxyamide], the IC50 is 10 to 20 nM in the assay with aggrecanase, > 1000 nM in assay [1], < 10000 nM on TACE and < 10 nM in assay [2].

Consider `CNC(=O)N1CCN(S(=O)(=O)c2ccc(OCc3cc(F)ccc3C)cc2)[C@@H](C(=O)NO)[C@@H]1C`, for which the IC50 in the assay on aggrecanase was < 10 nM; in assay [1], > 1000 nM; on TACE, < 10000 nM; in assay [2], < 10 nM.

Regarding `Cc1ccccc1COc1ccc(S(=O)(=O)N2CCC[C@@](C)(O)C2C(=O)NO)cc1` (stereo partly drawn) [(2R,3R) 1-[4-(2-methyl-benzyloxy)-benzenesulfonyl]-3-hydroxy-3-methyl-piperidine-2-carboxylic acidhydroxyamide], the IC50 was < 10 nM in the assay with aggrecanase, 200 to 1000 nM in assay [1], < 10000 nM at TACE and < 10 nM in assay [2].
